Patent publication US20220000952A1, “METHOD PREPARING ANTRODIA CINNAMOMEA EXTRACT AND ANTRODIA CINNAMOMEA COMPOSITION, AND PHARMACEUTICAL COMPOSITION” (priority 2018, published 2022)

Test system: bone marrow inhibition of chemotherapeutic drug Cisplatin
Test: Efficacy test for improving the bone marrow inhibition of chemotherapeutic drug cisplatin in C57BL/6 immune normal mice
Format: in vivo
Conditions: cisplatin alone 20 mg/kg i.p. day 1
Experimental: The animals used in this study were C57B116 mice which were commercially available from Taiwan Experimental Animal Centers and six weeks old. The feeding temperature was controlled to be 25±2° C., the illumination time was 08: 00-20: 00, sufficient feed and drinking water were provided daily, and the padding was replaced twice a week.
The cisplatin (cis, 20 mg/kg) was administered by intraperitoneal injection on the first day. The Antrodia cinnamomea composition (400 mg/kg) was administered in a tube-teed manner on the 1st to 5th day, and the time of tube feeding on the first day was 4 hours after the chemotherapeutic drug was administered. The animal groups were the control group,Cis and Antrodia cinnamomea compositions (AC) respectively, with 6 mice in each group and 18 mice in 3 groups.
The experimental animals were sacrificed in a CO2 manner on the sixth day, the thigh bones of the mice were surgically removed, both ends of the bones were cut, bone marrow cells were flushed out, and after centrifugation and washing, the cells were added to MethoCult M3334 medium or MethoCult M3234 medium, and allowed to stand in a humidified incubator containing 5% CO2 at 37° C. and cultured, the former was cultured for 48 hours to observe by microscope and calculate the number of CFU-E (Colony-forming unit-erythroid) colonies, and the latter was cultured for 7 days to observe by microscope and calculate the number of CFU-GM(Colony-forming unit-granulocyte, macrophage) colonies. The colony numbers of CFU-E and CFU-GM were counted by observation in the whole field of view.
Before the experimental animals were sacrificed, the whole blood was collected in a cheek blood collection manner, and anticoagulant whole blood was used for complete blood count (CBC) to determine the number of peripheral white blood cells.
One-way analysis of variance (One-Way ANOVA) was used for data analysis. When the analysis result reached a significant level, Fisher LSD was used for subsequent comparison.

For `N.N.[Cl][Pt][Cl]` [cisplatin], the “number of white blood cells (peripheral blood)” value (FIG. 5) was “can reduce the number of white blood cells”, the “number of CFU-GM (myeloid leukocyte precursor cells)” value (FIG. 6) was “inhibits the number of myeloid leukocyte precursor cells CFU-GM” and the “number of CFU-E (bone marrow red blood cell precursor cells)” value (FIG. 7) was “can inhibit the number of bone marrow red blood cell precursor cells CFU-E”.
